Assay results from patent US11999727B2 (Tango Therapeutics, Inc., priority 2020, dated 2024).

How the values were obtained:
[1] = system: HAP1 MTAP-deleted cell line; assay: Viability assay, MTAP-deleted cell line; assay type: cell-based; conditions: Homo sapiens, HAP1, viability assay, MTAP-deleted cell line; read-out: HAP1 MTAP deleted viability
Source text: Table 1 additionally indicates IC50 values in a viability assay for the MTAP-deleted cell line (column 10), indicating the effect of treatment with compound on cell survival.

[2] = target: T1, PRMT5 (Homo sapiens, UniProt O14744); assay: PRMT5 biochemical IC50 assay with SAM as cofactor; conditions: PRMT5, SAM as cofactor; read-out: SAM IC50
T1 construct: purchased Viva (custom protein)
T1 sequence (O14744 whole entry): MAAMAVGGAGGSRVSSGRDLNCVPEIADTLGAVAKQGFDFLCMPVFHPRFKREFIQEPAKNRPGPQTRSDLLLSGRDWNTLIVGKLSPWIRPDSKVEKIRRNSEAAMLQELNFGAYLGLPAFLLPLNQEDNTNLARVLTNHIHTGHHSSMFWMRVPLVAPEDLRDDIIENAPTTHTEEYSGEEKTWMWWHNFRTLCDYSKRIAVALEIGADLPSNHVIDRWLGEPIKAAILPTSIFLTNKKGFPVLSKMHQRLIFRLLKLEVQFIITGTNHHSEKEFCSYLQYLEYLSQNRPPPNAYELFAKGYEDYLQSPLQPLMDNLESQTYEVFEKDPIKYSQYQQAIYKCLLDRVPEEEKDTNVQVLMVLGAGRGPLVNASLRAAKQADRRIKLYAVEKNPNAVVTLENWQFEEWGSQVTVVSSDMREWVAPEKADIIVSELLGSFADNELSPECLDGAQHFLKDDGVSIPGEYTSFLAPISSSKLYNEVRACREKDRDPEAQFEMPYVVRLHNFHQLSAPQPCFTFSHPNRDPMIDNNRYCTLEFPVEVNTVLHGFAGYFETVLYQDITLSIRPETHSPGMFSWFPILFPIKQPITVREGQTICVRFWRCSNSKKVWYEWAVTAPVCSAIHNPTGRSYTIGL
T1 sequence (Q9BQA1 whole entry partner): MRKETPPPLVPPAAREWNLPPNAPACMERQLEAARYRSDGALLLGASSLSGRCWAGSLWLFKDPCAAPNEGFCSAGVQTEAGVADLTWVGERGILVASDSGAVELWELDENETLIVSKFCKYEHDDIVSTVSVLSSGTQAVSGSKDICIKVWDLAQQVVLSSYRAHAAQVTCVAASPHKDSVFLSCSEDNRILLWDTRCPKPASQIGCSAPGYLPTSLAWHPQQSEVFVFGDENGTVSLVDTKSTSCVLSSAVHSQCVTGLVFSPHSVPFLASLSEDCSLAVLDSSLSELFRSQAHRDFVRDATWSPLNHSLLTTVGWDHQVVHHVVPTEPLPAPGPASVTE

[3] = target: T1, PRMT5; assay: PRMT5 biochemical IC50 assay with MTA as cofactor; conditions: PRMT5, MTA as cofactor; read-out: MTA IC50
[4] = system: HAP1 MTAP-intact cell line; assay: SDMA in-cell western assay, HAP1 MTAP-intact; assay type: cell-based; conditions: Homo sapiens, HAP1, SDMA in-cell western, HAP1 MTAP-intact; read-out: MTAP HAP1 intact IC50
Outline: (§1)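 Isogenic HAP1 pair: the MTAP-intact line expresses endogenous MTAP, and the deleted line is MTAP-null. Symmetric dimethylarginine was detected by in-cell western and IC50 values derived for each line.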

[5] = system: HAP1 MTAP-deleted cell line; assay: SDMA in-cell western assay, HAP1 MTAP-deleted; assay type: cell-based; conditions: for IC50: Homo sapiens, HAP1, SDMA in-cell western, HAP1 MTAP-deleted, read-out: HAP1 MTAP deleted IC50; for MTAP intact/deleted ratio: IC50 ratio HAP1 MTAP-intact vs HAP1 MTAP-deleted, SDMA in-cell western
Outline: as §1

[6] = target: T1, PRMT5; assay: PRMT5 biochemical IC50 assay with no cofactor; conditions: PRMT5, no cofactor; read-out: No Cofactor/rel IC50
Source text: Table 1 indicates IC50 values (μM) against PRMT5 for exemplary compounds in the presence of SAM as cofactor, with no cofactor, and with MTA as cofactor, respectively (columns 4-6). […] Ki values can be calculated from the IC50 values as described in the Examples section. As detailed in the Examples section, for the assay performed in the presence of SAM, IC50=Ki×1.5 (Ki=IC50/1.5).

IC50 [2]	IC50 [3]	IC50 [4]	IC50 [5]	IC50 [6]	SMILES	IC50 [1]	MTAP intact/deleted ratio [5]
50 to 500 nM	< 50 nM	100 to 1000 nM	< 100 nM	< 50 nM	COc1ncc(NC(=O)C(=O)N2C[C@@H](C)CC[C@@H]2c2ccc3nn([C@@H]4CCN(C)C4)cc3c2)cc1C(N)=O (racemic) [Compound 1141, 2-Methoxy-5-[[2-oxo-2-[rac-(2R,5S)-5-methyl-2-[2-[rac-(3R)-1-methylpyrrolidin-3-yl]indazol-5-yl]-1-piperidyl]acetyl]amino]pyridine-3-carboxamide]	< 1000 nM	A (an IC50 ratio greater than or equal to 10 fold)
50 to 500 nM	< 50 nM	< 100 nM	< 100 nM	50 to 500 nM	Cc1cc(NC(=O)C(=O)N2C[C@H](C)CC[C@H]2c2ccc3scc(CCN(C)C)c3c2)cnc1N (racemic) [Compound 1142, N-(6-amino-5-methyl-3-pyridyl)-2-[(2S,5R)-2-[3-[2-(dimethylamino)ethyl]benzothiophen-5-yl]-5-methyl-1-piperidyl]-2-oxo-acetamide]	< 1000 nM	B (an IC50 ratio greater than or equal to 3 fold but lower than 10 fold)
50 to 500 nM	< 50 nM	100 to 1000 nM	< 100 nM	50 to 500 nM	Cc1cc(NC(=O)C(=O)N2C[C@H](C)CC[C@H]2c2cccc(C3CCN(C)CC3)c2)cnc1N (racemic) [Compound 1149, N-(6-amino-5-methylpyridin-3-yl)-2-(5-methyl-2-(3-(1-methylpiperidin-4-yl)phenyl)piperidin-1-yl)-2-oxoacetamide]	< 1000 nM	A (an IC50 ratio greater than or equal to 10 fold)
< 50 nM	< 50 nM	100 to 1000 nM	< 100 nM	< 50 nM	CCc1cc(NC(=O)C(=O)N2C[C@@H](C)CC[C@@H]2c2ccc(N3CCN(C(C)C)CC3)c(C)c2)cnc1N (racemic) [Compound 1163, N-(6-Amino-5-ethyl-3-pyridyl)-2-oxo-2-[rac-(2R,5S)-2-[4-(4-isopropylpiperazin-1-yl)-3-methyl-phenyl]-5-methyl-1-piperidyl]acetamide]	< 1000 nM	A (an IC50 ratio greater than or equal to 10 fold)
< 50 nM	< 50 nM	100 to 1000 nM	< 100 nM	< 50 nM	CCc1cc(NC(=O)C(=O)N2C[C@@H](C)CC[C@@H]2c2ccc(N3C[C@H]4CCN(C)C[C@H]4C3)cc2)cnc1N (racemic) [Compound 1167, N-(6-amino-5-ethyl-3-pyridyl)-2-oxo-2-[rac-(2R,5S)-5-methyl-2-[4-[rac-(3aS,7aS)-5-methyl-3,3a,4,6,7,7a-hexahydro-1H-pyrrolo[3,4-c]pyridin-2-yl]phenyl]-1-piperidyl]acetamide]	< 1000 nM	A (an IC50 ratio greater than or equal to 10 fold)
< 50 nM	< 50 nM	< 100 nM	< 100 nM	< 50 nM	COc1ncc(NC(=O)C(=O)N2C[C@@H](C)CC[C@@H]2c2ccc3sc([C@H]4CCN(C)C[C@@H]4C)nc3c2)cc1C(N)=O (racemic) [Compound 1168, 2-methoxy-5-[[2-oxo-2-[rac-(2R,5S)-5-methyl-2-[2-[rac-(3R,4S)-1,3-dimethyl-4-piperidyl]-1,3-benzothiazol-5-yl]-1-piperidyl]acetyl]amino]pyridine-3-carboxamide]	< 1000 nM	A (an IC50 ratio greater than or equal to 10 fold)
50 to 500 nM	< 50 nM	100 to 1000 nM	< 100 nM	50 to 500 nM	CCc1cc(NC(=O)C(=O)N2C[C@@H](C)[C@H](OC)C[C@@H]2c2cccc(OCCN(C)C)c2)cnc1N (racemic) [Compound 1172, N-(6-amino-5-ethyl-3-pyridyl)-2-oxo-2-[rac-(2R,4R,5R)-2-[3-[2-(dimethylamino)ethoxy]phenyl]-4-methoxy-5-methyl-1-piperidyl]acetamide]	< 1000 nM	A (an IC50 ratio greater than or equal to 10 fold)
50 to 500 nM	50 to 500 nM	100 to 1000 nM	< 100 nM	50 to 500 nM	CCc1nc2cc([C@@H]3CC[C@@H](C)CN3C(=O)C(=O)Nc3cnc(N)c(C)c3)ccc2s1 (racemic) [Compound 1184, N-(6-amino-5-methylpyridin-3-yl)-2-(2-(2-ethylbenzo[d]thiazol-5-yl)-5-methylpiperidin-1-yl)-2-oxoacetamide]	< 1000 nM	A (an IC50 ratio greater than or equal to 10 fold)
< 50 nM	< 50 nM	< 100 nM	< 100 nM	< 50 nM	COc1ncc(NC(=O)C(=O)N2C[C@@H](C)CC[C@@H]2c2ccc3sc([C@H]4CCN(C)C[C@H]4C)nc3c2)cc1C(N)=O (racemic) [Compound 1185, 2-methoxy-5-[[2-oxo-2-[rac-(2R,5S)-5-methyl-2-[2-[rac-(3S,4S)-1,3-dimethyl-4-piperidyl]-1,3-benzothiazol-5-yl]-1-piperidyl]acetyl]amino]pyridine-3-carboxamide]	< 1000 nM	A (an IC50 ratio greater than or equal to 10 fold)
50 to 500 nM	< 50 nM	100 to 1000 nM	< 100 nM	50 to 500 nM	CCc1cc(NC(=O)C(=O)N2C[C@@H](C)CC[C@@H]2c2ccc(N3CCN(C)CC3)cc2)cnc1N (racemic) [Compound 1209, rac-N-(6-Amino-5-ethyl-3-pyridyl)-2-[(2S,5R)-5-methyl-2-[4-(4-methylpiperazin-1-yl)phenyl]-1-piperidyl]-2-oxo-acetamide]	< 1000 nM	A (an IC50 ratio greater than or equal to 10 fold)
50 to 500 nM	< 50 nM	100 to 1000 nM	< 100 nM	50 to 500 nM	Cc1cc(NC(=O)C(=O)N2C[C@H](C)CC[C@H]2c2cccc(N3CCN(C)CC3)c2)cnc1N (racemic) [Compound 1223, N-(6-amino-5-methylpyridin-3-yl)-2-(5-methyl-2-(3-(4-methylpiperazin-1-yl)phenyl)piperidin-1-yl)-2-oxoacetamide]	< 1000 nM	A (an IC50 ratio greater than or equal to 10 fold)
< 50 nM	< 50 nM	< 100 nM	< 100 nM	< 50 nM	CCc1cc(NC(=O)C(=O)N2CC(C)CCC2c2ccc3sc(C4CCN(C)CC4C)nc3c2)cnc1N (racemic) [Compound 1227, N-(6-amino-5-ethyl-3-pyridyl)-2-oxo-2-[rac-(2R,5S)-5-methyl-2-[2-[rac-(3S,4R)-1,3-dimethyl-4-piperidyl]-1,3-benzothiazol-5-yl]-1-piperidyl]acetamide]	< 1000 nM	A (an IC50 ratio greater than or equal to 10 fold)
